Laboratory results: US8940742B2, “Heterocyclic compounds and uses thereof” (Infinity Pharmaceuticals, Inc., priority 2012, dated 2015)

Experiments:
RAJI p110 δ = RAJI p110 δ (Homo sapiens, UniProt O00329); assay: RAJI p110 δ cellular assay (phospho-AKT);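 further: potency based on lowered phosphorylated AKT in RAJI cells, as a readout of PI3K-δ dependent B-cell receptor signaling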
Description: (a) PI3K-δ Selective Assay
Reduction of phospho-AKT is indicative of compounds that may inhibit B-cell proliferation and function in certain diseases.

Raw264.7 p110 γ = target: T1, Raw264.7 p110 γ (Mus musculus, UniProt Q9JHG7); assay: Raw264.7 p110 γ cellular assay (phospho-AKT); assay type: cell-based; conditions: serum-starved RAW264.7 cells stimulated with C5a
T1 construct: reduction of phospho-AKT in stimulated RAW 264.7 cells; endogenous in cells; host or cells: RAW264.7 macrophages
Description: (b) PI3K-γ Selective Assay
Briefly, serum-starved PAW264.7 cells are stimulated with a known GPCR agonist C5a. […] Cells can be treated with test compounds prior to, simultaneously with, or subsequent to the stimulation by C5a. RAW 264.7 cells respond to the complement component fragment C5a through activation of the C5a receptor, and the C5a receptor activates macrophages and induces cell migration.

PI3K δ = target: T2, PI3K δ (Homo sapiens, UniProt O00329); assay: PI3-Kinase Promega ADP-Glo Max assay; assay type: biochemical; conditions: 20 nM kinase, 3 mM ATP, 500 uM diC8-PtdInsP
T2 construct: purchased Millipore
Description: (§1) Promega ADP-Glo Max assay kit (Cat. No. V7002) was utilized to determine IC50 values for α, β, δ and γ isoforms of human Class I PI3 kinases (Millipore). Samples of kinase (20 nM α or δ, 40 nM β or γ isoform) were incubated with compound for 15 minutes at room temperature in reaction buffer (15 mM HEPES pH 7.4, 20 mM NaCl, 1 mM EGTA, 0.02% Tween 20, 10 mM MgCl2, 0.2 mg/mL bovine-γ-globulins) followed by addition of ATP/diC8-PtdInsP mixture to give final concentrations of 3 mM ATP and 500 uM diC8-PtdInsP. Reactions were incubated at room temperature for 2 hours followed by addition of 25 uL of stop solution. After a 40-minute incubation at room temperature, 50 uL of Promega detection mix was added followed by incubation for 1 hour at room temperature. Plates were then read on Envision plate reader in luminescence mode. Data was converted to % inhibition using the following equation below:
(§2) [formula] where S is the sample luminescence, Pos is a positive control without added PI3K, Neg is the negative control without added compound. Data was then plotted as % inhibition vs compound concentration. Data fit to 4 parameter logistic equation to determine IC50 values: […]
(§3) Certain compounds provided herein were tested in PI3-Kinase Promega Assay using procedures as described above to determine IC50 values for α, β, δ and/or γ isoforms.

PI3K β = target: T3, PI3K β (Homo sapiens, UniProt P42338); assay: PI3-Kinase Promega ADP-Glo Max assay; assay type: biochemical; conditions: 40 nM kinase, 3 mM ATP, 500 uM diC8-PtdInsP
T3 construct: purchased Millipore
Description: as §1, §2, §3

PI3K α = target: T4, PI3K α (Homo sapiens, UniProt P42336); assay: PI3-Kinase Promega ADP-Glo Max assay; assay type: biochemical; conditions: 20 nM kinase, 3 mM ATP, 500 uM diC8-PtdInsP
T4 construct: purchased Millipore
Description: as §1, §2, §3

PI3K γ = target: T5, PI3K γ (Homo sapiens, UniProt P48736); assay: PI3-Kinase Promega ADP-Glo Max assay; assay type: biochemical; conditions: 40 nM kinase, 3 mM ATP, 500 uM diC8-PtdInsP
T5 construct: purchased Millipore
Description: Promega ADP-Glo Max assay kit (Cat. No. V7002) was utilized to determine IC50 values for α, β, δ and γ isoforms of human Class I PI3 kinases (Millipore). […] Reactions were incubated at room temperature for 2 hours followed by addition of 25 uL of stop solution. After a 40-minute incubation at room temperature, 50 uL of Promega detection mix was added followed by incubation for 1 hour at room temperature. Plates were then read on Envision plate reader in luminescence mode. Data was converted to % inhibition using the following equation below:
[formula] where S is the sample luminescence, Pos is a positive control without added PI3K, Neg is the negative control without added compound. Data was then plotted as % inhibition vs compound concentration.
as §3

T3 sequence (P42338 whole entry): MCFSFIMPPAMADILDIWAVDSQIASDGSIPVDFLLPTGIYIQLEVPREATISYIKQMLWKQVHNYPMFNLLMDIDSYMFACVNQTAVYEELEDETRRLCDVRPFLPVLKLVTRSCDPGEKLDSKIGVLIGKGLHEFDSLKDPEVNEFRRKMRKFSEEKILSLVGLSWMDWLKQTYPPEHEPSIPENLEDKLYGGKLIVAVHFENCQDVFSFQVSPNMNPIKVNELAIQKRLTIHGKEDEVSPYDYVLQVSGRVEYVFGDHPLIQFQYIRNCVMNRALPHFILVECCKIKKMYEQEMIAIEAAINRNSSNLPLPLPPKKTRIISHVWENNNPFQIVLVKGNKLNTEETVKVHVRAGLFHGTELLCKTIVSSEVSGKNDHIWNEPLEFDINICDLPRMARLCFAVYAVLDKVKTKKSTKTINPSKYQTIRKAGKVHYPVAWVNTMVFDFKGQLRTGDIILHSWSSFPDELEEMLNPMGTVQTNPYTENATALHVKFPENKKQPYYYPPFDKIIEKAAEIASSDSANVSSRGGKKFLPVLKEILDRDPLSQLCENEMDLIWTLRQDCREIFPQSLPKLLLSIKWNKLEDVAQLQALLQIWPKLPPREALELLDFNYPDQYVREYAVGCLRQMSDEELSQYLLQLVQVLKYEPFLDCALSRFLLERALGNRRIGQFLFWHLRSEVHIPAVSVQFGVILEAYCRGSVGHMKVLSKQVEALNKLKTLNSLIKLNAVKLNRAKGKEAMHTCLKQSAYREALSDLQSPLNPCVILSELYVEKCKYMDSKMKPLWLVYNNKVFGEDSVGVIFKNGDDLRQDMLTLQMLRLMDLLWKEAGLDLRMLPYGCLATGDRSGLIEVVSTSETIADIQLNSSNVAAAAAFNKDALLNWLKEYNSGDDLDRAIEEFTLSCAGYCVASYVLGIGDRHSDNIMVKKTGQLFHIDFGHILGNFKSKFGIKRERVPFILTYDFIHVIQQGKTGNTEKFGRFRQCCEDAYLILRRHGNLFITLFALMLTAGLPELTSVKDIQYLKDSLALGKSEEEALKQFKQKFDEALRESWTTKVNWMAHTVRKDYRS
T3 sequence (P27986 whole entry partner): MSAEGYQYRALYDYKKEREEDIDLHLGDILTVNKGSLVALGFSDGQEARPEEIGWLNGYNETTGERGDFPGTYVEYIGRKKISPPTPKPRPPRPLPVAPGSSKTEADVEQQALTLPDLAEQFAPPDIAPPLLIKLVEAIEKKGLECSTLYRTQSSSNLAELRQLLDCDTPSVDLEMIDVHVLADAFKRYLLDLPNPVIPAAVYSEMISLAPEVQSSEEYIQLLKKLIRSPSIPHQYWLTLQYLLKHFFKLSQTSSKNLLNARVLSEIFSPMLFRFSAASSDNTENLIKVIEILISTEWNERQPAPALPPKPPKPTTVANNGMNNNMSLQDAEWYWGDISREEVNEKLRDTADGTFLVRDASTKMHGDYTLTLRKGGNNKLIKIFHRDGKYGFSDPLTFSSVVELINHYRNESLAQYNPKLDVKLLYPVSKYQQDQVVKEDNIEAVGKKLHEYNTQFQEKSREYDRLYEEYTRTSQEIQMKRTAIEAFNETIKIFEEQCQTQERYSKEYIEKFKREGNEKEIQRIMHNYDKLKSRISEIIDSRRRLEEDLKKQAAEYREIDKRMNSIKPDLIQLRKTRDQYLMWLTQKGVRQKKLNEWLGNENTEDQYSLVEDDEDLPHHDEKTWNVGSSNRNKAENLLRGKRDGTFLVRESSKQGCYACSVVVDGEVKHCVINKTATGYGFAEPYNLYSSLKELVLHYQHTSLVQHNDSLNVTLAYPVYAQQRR
T1 sequence (Q9JHG7 whole entry): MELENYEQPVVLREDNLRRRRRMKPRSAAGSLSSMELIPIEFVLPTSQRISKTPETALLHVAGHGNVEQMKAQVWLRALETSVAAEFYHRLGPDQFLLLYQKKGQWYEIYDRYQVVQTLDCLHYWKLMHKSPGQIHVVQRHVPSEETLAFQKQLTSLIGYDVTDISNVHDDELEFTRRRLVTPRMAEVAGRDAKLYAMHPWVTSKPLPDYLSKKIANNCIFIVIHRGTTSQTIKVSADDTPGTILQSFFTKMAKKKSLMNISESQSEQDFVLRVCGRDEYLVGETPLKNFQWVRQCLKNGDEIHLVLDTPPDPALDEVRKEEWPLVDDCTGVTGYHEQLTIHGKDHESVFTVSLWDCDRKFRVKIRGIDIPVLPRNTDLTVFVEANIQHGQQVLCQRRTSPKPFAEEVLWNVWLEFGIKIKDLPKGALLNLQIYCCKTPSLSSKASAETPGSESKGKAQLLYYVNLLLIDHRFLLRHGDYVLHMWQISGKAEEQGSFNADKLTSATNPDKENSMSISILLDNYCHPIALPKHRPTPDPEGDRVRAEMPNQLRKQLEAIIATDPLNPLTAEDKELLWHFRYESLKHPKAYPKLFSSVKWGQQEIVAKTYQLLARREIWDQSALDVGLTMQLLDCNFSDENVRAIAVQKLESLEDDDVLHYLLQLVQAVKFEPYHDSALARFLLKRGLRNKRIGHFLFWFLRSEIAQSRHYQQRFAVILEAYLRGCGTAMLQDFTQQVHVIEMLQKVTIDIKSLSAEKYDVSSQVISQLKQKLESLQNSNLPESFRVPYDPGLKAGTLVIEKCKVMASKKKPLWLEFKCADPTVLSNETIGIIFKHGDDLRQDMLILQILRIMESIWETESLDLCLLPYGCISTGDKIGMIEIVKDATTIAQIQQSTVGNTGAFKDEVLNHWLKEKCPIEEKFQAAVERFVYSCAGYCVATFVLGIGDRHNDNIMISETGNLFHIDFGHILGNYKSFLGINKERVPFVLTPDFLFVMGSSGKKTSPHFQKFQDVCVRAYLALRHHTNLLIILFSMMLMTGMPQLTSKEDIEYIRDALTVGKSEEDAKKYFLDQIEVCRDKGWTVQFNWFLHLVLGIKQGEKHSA
T5 sequence (P48736 whole entry): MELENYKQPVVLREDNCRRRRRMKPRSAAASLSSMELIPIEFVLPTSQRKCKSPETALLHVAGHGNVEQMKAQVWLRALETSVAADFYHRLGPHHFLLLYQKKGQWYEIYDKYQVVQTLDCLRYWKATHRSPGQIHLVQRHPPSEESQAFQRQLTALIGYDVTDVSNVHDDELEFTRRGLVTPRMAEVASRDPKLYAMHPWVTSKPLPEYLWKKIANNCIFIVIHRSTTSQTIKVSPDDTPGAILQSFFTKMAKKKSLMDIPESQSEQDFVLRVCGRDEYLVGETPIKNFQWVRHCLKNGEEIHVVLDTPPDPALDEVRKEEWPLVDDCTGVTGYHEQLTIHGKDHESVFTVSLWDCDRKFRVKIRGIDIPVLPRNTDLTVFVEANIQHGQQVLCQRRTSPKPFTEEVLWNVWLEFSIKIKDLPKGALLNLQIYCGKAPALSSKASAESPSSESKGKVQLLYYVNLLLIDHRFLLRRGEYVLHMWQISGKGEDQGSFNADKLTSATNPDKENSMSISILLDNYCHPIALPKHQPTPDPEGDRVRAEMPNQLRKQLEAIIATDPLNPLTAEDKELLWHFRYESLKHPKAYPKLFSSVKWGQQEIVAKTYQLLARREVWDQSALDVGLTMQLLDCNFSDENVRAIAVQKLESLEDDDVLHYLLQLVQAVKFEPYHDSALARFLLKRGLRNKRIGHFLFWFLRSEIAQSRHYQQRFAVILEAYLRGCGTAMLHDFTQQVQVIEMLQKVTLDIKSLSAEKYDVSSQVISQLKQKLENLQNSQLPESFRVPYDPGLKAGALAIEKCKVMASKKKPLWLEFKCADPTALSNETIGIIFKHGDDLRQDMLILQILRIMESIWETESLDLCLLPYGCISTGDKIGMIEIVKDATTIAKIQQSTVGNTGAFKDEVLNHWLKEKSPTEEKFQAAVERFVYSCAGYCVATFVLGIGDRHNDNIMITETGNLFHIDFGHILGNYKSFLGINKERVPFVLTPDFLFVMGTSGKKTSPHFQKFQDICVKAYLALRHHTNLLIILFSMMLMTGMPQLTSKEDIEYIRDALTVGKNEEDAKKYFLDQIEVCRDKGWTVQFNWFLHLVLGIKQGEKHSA
RAJI p110 δ, sequence (O00329 whole entry): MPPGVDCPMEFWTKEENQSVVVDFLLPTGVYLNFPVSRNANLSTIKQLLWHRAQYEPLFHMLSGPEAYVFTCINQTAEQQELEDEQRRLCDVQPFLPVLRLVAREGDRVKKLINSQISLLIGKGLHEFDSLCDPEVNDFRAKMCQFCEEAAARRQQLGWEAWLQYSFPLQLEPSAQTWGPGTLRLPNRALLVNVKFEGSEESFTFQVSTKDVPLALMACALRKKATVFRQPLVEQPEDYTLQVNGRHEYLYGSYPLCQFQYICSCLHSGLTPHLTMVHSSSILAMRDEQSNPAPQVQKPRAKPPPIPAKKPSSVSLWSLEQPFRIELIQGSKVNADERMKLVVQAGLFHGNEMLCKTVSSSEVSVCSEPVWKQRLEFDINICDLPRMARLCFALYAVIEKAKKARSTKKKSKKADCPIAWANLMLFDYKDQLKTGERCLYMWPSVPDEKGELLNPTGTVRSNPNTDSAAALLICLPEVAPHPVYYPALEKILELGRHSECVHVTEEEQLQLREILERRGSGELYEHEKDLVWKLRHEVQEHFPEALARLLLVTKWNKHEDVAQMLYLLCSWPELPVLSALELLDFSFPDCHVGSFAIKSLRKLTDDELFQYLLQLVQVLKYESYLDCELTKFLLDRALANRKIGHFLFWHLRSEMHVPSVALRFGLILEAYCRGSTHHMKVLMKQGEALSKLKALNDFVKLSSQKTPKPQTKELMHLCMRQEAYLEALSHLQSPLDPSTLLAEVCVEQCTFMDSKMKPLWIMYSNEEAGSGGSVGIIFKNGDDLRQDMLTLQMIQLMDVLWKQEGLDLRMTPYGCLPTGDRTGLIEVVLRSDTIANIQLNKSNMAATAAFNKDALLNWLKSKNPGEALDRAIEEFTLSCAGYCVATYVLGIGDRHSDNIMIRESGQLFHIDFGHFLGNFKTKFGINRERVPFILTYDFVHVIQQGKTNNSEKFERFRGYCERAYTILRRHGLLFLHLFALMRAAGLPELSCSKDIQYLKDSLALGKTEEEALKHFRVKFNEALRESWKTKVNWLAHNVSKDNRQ
RAJI p110 δ, sequence (P27986 whole entry partner): as the sequence (P27986 whole entry partner) above

Row | Structure (SMILES) | IC50 (RAJI p110 δ) [nM] | IC50 (Raw264.7 p110 γ) [nM] | IC50 (PI3K δ) [nM] | IC50 (PI3K β) [nM] | IC50 (PI3K α) [nM] | IC50 (PI3K γ) [nM]
1 | CNS(=O)(=O)c1cccc(-c2cnc(N)c(C(=O)N[C@@H](C)c3cc4cccc(Cl)c4c(=O)n3-c3ccccc3)n2)c1 [Compound 83] | < 100 | < 100 | 1000 to 10000 | 100 to 1000 | 1000 to 10000 | 100 to 1000
2 | C[C@H](NC(=O)c1nc(-c2cccc(NS(C)(=O)=O)c2)cnc1N)c1cc2cccc(Cl)c2c(=O)n1-c1ccccc1 [Compound 85] | < 100 | < 100 | 1000 to 10000 | 100 to 1000 | 1000 to 10000 | < 100
3 | C[C@H](NC(=O)c1nc(-c2cccc(S(=O)(=O)NC(C)(C)C)c2)cnc1N)c1cc2cccc(Cl)c2c(=O)n1-c1ccccc1 [Compound 86] | < 100 | < 100 | 1000 to 10000 | 1000 to 10000 | 1000 to 10000 | 100 to 1000
4 | CC(C)Oc1ccc(-c2cnc(N)c(C(=O)N[C@@H](C)c3cc4cccc(Cl)c4c(=O)n3-c3ccccc3)n2)cc1F [Compound 87] | 1000 to 10000 | 100 to 1000 | 1000 to 10000 | > 10000 | 1000 to 10000 | 100 to 1000
5 | CC(C)Oc1ccc(-c2cnc(N)c(C(=O)N[C@@H](C)c3cc4cccc(Cl)c4c(=O)n3-c3ccccc3)n2)cc1Cl [Compound 88] | > 10000 | 1000 to 10000 | > 10000 | > 10000 | > 10000 | 1000 to 10000
6 | Cc1cnc(N)c(C(=O)N[C@@H](C)c2cc3cccc(Cl)c3c(=O)n2-c2ccccc2)n1 [Compound 89] | 100 to 1000 | 100 to 1000 | 1000 to 10000 | 1000 to 10000 | > 10000 | 1000 to 10000
7 | C[C@H](NC(=O)c1nc(-c2ccc(S(C)(=O)=O)cc2)cnc1N)c1cc2cccc(Cl)c2c(=O)n1-c1ccccc1 [Compound 90] | 1000 to 10000 | 100 to 1000 | > 10000 | > 10000 | > 10000 | 1000 to 10000
8 | C[C@H](NC(=O)c1nc(-c2cccc(S(=O)(=O)N(C)C)c2)cnc1N)c1cc2cccc(Cl)c2c(=O)n1-c1ccccc1 [Compound 91] | 100 to 1000 | 100 to 1000 | 1000 to 10000 | 1000 to 10000 | > 10000 | 1000 to 10000
9 | C[C@H](NC(=O)c1nc(-c2cccc(S(=O)(=O)N3CCCC3)c2)cnc1N)c1cc2cccc(Cl)c2c(=O)n1-c1ccccc1 [Compound 92] | 1000 to 10000 | 1000 to 10000 | 1000 to 10000 | 1000 to 10000 | > 10000 | 1000 to 10000
10 | COc1ccc(-c2cnc(N)c(C(=O)N[C@@H](C)c3cc4cccc(Cl)c4c(=O)n3-c3ccccc3)n2)cc1OC [Compound 93] | 100 to 1000 | < 100 | 1000 to 10000 | 1000 to 10000 | 1000 to 10000 | 100 to 1000
11 | C[C@H](NC(=O)c1nc(-c2cccc(S(=O)(=O)NC3CC3)c2)cnc1N)c1cc2cccc(Cl)c2c(=O)n1-c1ccccc1 [Compound 96] | < 100 | < 100 | 1000 to 10000 | 1000 to 10000 | > 10000 | 1000 to 10000
12 | CC(C)NS(=O)(=O)c1cccc(-c2cnc(N)c(C(=O)N[C@@H](C)c3cc4cccc(Cl)c4c(=O)n3-c3ccccc3)n2)c1 [Compound 97] | < 100 | < 100 | 1000 to 10000 | 100 to 1000 | 1000 to 10000 | 100 to 1000
13 | CC(C)Oc1ccc(-c2cnc(N)c(C(=O)N[C@@H](C)c3cc4cccc(Cl)c4c(=O)n3-c3ccccc3)n2)cn1 [Compound 98] | 100 to 1000 | 100 to 1000 | 1000 to 10000 | > 10000 | > 10000 | 1000 to 10000
14 | C[C@H](NC(=O)c1nc(-c2cccc(NS(=O)(=O)N(C)C)c2)cnc1N)c1cc2cccc(Cl)c2c(=O)n1-c1ccccc1 [Compound 99] | < 100 | < 100 | 100 to 1000 | 100 to 1000 | 1000 to 10000 | < 100
15 | COc1ccc(-c2cnc(N)c(C(=O)N[C@@H](C)c3cc4cccc(Cl)c4c(=O)n3-c3ccccc3)n2)cc1NS(C)(=O)=O [Compound 101] | < 100 | < 100 | 1000 to 10000 | 100 to 1000 | 100 to 1000 | < 100
16 | C[C@H](NC(=O)c1nc(-c2cccc(NS(=O)(=O)C3CC3)c2)cnc1N)c1cc2cccc(Cl)c2c(=O)n1-c1ccccc1 [Compound 102] | < 100 | < 100 | 1000 to 10000 | 100 to 1000 | 1000 to 10000 | < 100
17 | C[C@H](NC(=O)c1nc(-c2ccc(NS(C)(=O)=O)cc2)cnc1N)c1cc2cccc(Cl)c2c(=O)n1-c1ccccc1 [Compound 103] | 1000 to 10000 | 100 to 1000 | > 10000 | > 10000 | > 10000 | 1000 to 10000
18 | C[C@H](NC(=O)c1nc(-c2cccc(O)c2)cnc1N)c1cc2cccc(Cl)c2c(=O)n1-c1ccccc1 [Compound 104] | 100 to 1000 | 100 to 1000 | > 10000 | 1000 to 10000 | > 10000 | 1000 to 10000
19 | CC(C)Oc1ccc(-c2cnc(N)c(C(=O)N[C@@H](C)c3cc4cccc(Cl)c4c(=O)n3-c3ccccc3)n2)cc1 [Compound 106] | > 10000 | 100 to 1000 | > 10000 | > 10000 | > 10000 | 1000 to 10000
20 | C[C@H](NC(=O)c1nc(-c2cncc(NS(C)(=O)=O)c2)cnc1N)c1cc2cccc(Cl)c2c(=O)n1-c1ccccc1 [Compound 107] | 100 to 1000 | < 100 | 100 to 1000 | < 100 | 100 to 1000 | < 100
21 | C[C@H](NC(=O)c1nc(-c2cccc(S(N)(=O)=O)c2)cnc1N)c1cc2cccc(Cl)c2c(=O)n1-c1ccccc1 [Compound 108] | 100 to 1000 | < 100 | 1000 to 10000 | 100 to 1000 | 1000 to 10000 | 100 to 1000
22 | C[C@H](NC(=O)c1nc(-c2cnn(C)c2)cnc1N)c1cc2cccc(Cl)c2c(=O)n1-c1ccccc1 [Compound 109] | 100 to 1000 | < 100 | > 10000 | 1000 to 10000 | 1000 to 10000 | 1000 to 10000
23 | C[C@H](NC(=O)c1nc(-c2cn[nH]c2)cnc1N)c1cc2cccc(Cl)c2c(=O)n1-c1ccccc1 [Compound 110] | < 100 | < 100 | 1000 to 10000 | 1000 to 10000 | 1000 to 10000 | 100 to 1000
24 | C[C@H](NC(=O)c1nc(C#N)cnc1N)c1cc2cccc(Cl)c2c(=O)n1-c1ccccc1 [Compound 111] | < 100 | 100 to 1000 | 100 to 1000 | 100 to 1000 | > 10000 | 100 to 1000
25 | C[C@H](NC(=O)c1nc(-c2cscn2)cnc1N)c1cc2cccc(Cl)c2c(=O)n1-c1ccccc1 [Compound 112] | 100 to 1000 | < 100 | > 10000 | 1000 to 10000 | 1000 to 10000 | 100 to 1000
26 | C[C@H](NC(=O)c1nc(-c2csc(S(C)(=O)=O)n2)cnc1N)c1cc2cccc(Cl)c2c(=O)n1-c1ccccc1 [Compound 113] | 1000 to 10000 | 100 to 1000 | > 10000 | 1000 to 10000 | > 10000 | 1000 to 10000
